The values that follow come from US20030129222A1, “Liposomal imexon” (priority 2000, published 2003).

Like-named read-outs stand apart in the source and are kept apart here. Some results are limits rather than exact numbers.

The term melting point denotes the temperature of the solid-liquid transition.

For series [1] the following is noted: cited from earlier work.
The conditions of series [2]: cited from earlier work. This is another data set of the same source.
A further series relates to L1210 leukemia, Mdr. The experiment in a line: Cytotoxicity in tumor cell culture, MTT assay. The conditions noted are these: MTT assay, multidrug-resistant, read-out: IC50 against human mouse tumors, L1210 leukemia Mdr. The series is classed as cell-based, murine. An excerpt: (§1) Relative potencies of the N-substituted 2-cyanoaziridine-1-carboxamides in a panel of tumor cell cultures are compared in Table 3. This panel includes the following lines of human tumor cells: sensitive and imexon-resistant lines of multiple myeloma (Matsuoka et al., 1967); ovarian carcinoma resistant to standard drugs (Hamilton et al., 1984); melanoma with a slow growth fraction (Girard et al., 1973); breast carcinoma including sensitive, doxorubicin-resistant (P-glycoprotein-positive) (Taylor et al., 1991), and mitoxantrone-resistant (P-glycoprotein-negative) (Futscher et al., 1994) lines; sensitive and multidrug-resistant colon carcinoma (Noguchi et al., 1979; Dalton et al., 1988); and multidrug-resistant lung carcinoma (P-glycoprotein-negative) (Girard et al., 1973). It also has sensitive (Goldin et al., 1961) and multidrug-resistant (P-glycoprotein-positive) (Salmon and Hersh, 1994) murine L1210 leukemia cells.
(Tetrazolium dyes change colour on reduction, which living cells bring about.)

The subject of the next series is L1210 leukemia, Sens. The experiment in a line: Cytotoxicity in tumor cell culture, MTT assay. To be noted: MTT assay, read-out: IC50 against human mouse tumors, L1210 leukemia Sens. The series is classed as cell-based, murine.
Text: as §1

In series [3] the test system is 8226 myeloma, Sens (drug-sensitive). As to the kind of experiment: Cytotoxicity in tumor cell culture, SRB assay. It is filed as cell-based, human.
Text: as §1

Another series concerns A-549 lung. As to the kind of experiment: Cytotoxicity in tumor cell culture, SRB assay. It is filed as cell-based, human. To be noted: read-out: IC50 against human mouse tumors, A-549 lung.
Text: as §1

For a further series, the system named is A375 melan. As to the kind of experiment: Cytotoxicity in tumor cell culture, SRB assay. The series is classed as cell-based, human. The conditions noted are these: read-out: IC50 against human mouse tumors, A375 melan.
Text: as §1
On the technique in general: The SRB assay estimates cell density from bound dye.

Series [4] concerns MCF7 breast, Dox (doxorubicin-resistant). As to the kind of experiment: Cytotoxicity in tumor cell culture, SRB assay. The conditions noted are these: doxorubicin-resistant, read-out: IC50 against human mouse tumors, MCF7 breast Dox. The series is classed as cell-based, human.
Text: as §1

Another series has as its system MCF7 breast, Sens. The experiment in a line: Cytotoxicity in tumor cell culture, SRB assay. The series is classed as cell-based, human. To be noted: read-out: IC50 against human mouse tumors, MCF7 breast Sens.
Text: as §1

The subject of series [5] is MCF7 breast, mitox (mitoxantrone-resistant). As to the kind of experiment: Cytotoxicity in tumor cell culture, SRB assay. It is filed as cell-based, human. To be noted: mitoxantrone-resistant, read-out: IC50 against human mouse tumors, MCF7 breast mitox.
Text: as §1

For a further series, the system named is OVCAR3 ovarian. As to the kind of experiment: Cytotoxicity in tumor cell culture, SRB assay. The conditions noted are these: read-out: IC50 against human mouse tumors, OVCAR3 ovarian. The series is classed as cell-based, human.
Text: as §1

For series [6], the system named is 8226 myeloma, Res (imexon-resistant). As to the kind of experiment: Cytotoxicity in tumor cell culture, SRB assay. It is filed as cell-based. To be noted: line made resistant to imexon, read-out: IC50 against human mouse tumors, 8226 myeloma Res.
Text: as §1

In the next series the test system is WiDr colon, Sens. As to the kind of experiment: Cytotoxicity in tumor cell culture, SRB assay. The series is classed as cell-based. To be noted: read-out: IC50 against human mouse tumors, WiDr colon Sens.
Text: as §1

A further series relates to WiDr colon, res. As to the kind of experiment: Cytotoxicity in tumor cell culture, SRB assay. It is filed as cell-based. To be noted: multidrug-resistant, read-out: IC50 against human mouse tumors, WiDr colon res.
Text: as §1

For series [7] the following is noted: substituent constant, from Hansch and Leo or calculated using Clog P software; cited from earlier work.
[8] abbreviates: against sensitive myeloma, values repeated from Table 3 (μM there), read-out: IC50.
Setting [9] is: drug-sensitive line, read-out: IC50 against human mouse tumors, 8226 myeloma Sens.

As to `CS(=O)(=O)OCCCCOS(C)(=O)=O` [Busulfan, 1,4-butanediol dimethanesulfonate], in series [1] (previously untreated chronic myelogenous leukemia), the “adults obtaining hematologic remission” value is listed as “Approximately 90%”.
For the molecule `CO[C@@]12[C@H](COC(N)=O)C3=C(C(=O)C(C)=C(N)C3=O)N1C[C@@H]1N[C@@H]12` [Mitomycin], the maximal serum concentration is 0.52 mg/mL in series [2] (10 mg I.V.), 1.7 mg/mL in series [2] (20 mg I.V.) and 2.4 mg/mL in series [2] (30 mg I.V.). In addition, the “time required to reduce the serum concentration by about 50%” value in [2] (30 mg bolus injection) is 17 min. For the same molecule, the “dose excreted unchanged in the urine” value in series [2] (in vivo) is “Approximately 10%”.
Molecule `CNC(=O)N1CC1C#N` (centres unmarked) [Compound 6, 2-Cyanoaziridine-1-(N-methyl) carboxainide] registered a melting point of 98 to 100 °C. Further, the IC50 in the series with L1210 leukemia, Mdr (Mus musculus, L1210) came to 21 µM. In the series on L1210 leukemia, Sens (Mus musculus, L1210), the IC50 worked out at 8.7 µM. For the same molecule, the IC50 in [3] (Homo sapiens, against sensitive myeloma, read-out: Log(1/C) (converted)) was 25.7 µM. The IC50 in [3] (Homo sapiens, against sensitive myeloma, values repeated from Table 3 (μM there), read-out: IC50) was found to be 26 µM. The IC50 in series [3] (Homo sapiens, drug-sensitive line, read-out: IC50 against human mouse tumors, 8226 myeloma Sens) stood at 26 µM. Further, in the series with A-549 lung (Homo sapiens, A549), the IC50 is 22 µM. Also, the IC50 in the series with A375 melan (Homo sapiens, A-375) was 17 µM. The IC50 in series [4] (Homo sapiens, MCF7) turned out to be 17 µM. Further, in the series with MCF7 breast, Sens (Homo sapiens, MCF7), the IC50 is 27 µM. Further, in series [5] (Homo sapiens, MCF7), the IC50 is 18 µM. Further, in the series with OVCAR3 ovarian (Homo sapiens, OVCAR-3), the IC50 stood at 14 µM. In series [6] (Homo sapiens), the IC50 was 26 µM. Also, the IC50 in the series with WiDr colon, Sens (Homo sapiens, WiDr) was 21 µM. In the series on WiDr colon, res (Homo sapiens, WiDr), the IC50 was determined as 23 µM. For the same molecule, the π in [7] is 0.50.
With `N#CC1CN1C(=O)NC1CCCCC1` (centres unmarked) [Compound 10, 2-Cyanoaziridine-1-(N-cyclohexyl) carboxamide], the IC50 worked out at 16 µM in the series with L1210 leukemia, Mdr; 7.4 µM in the series with L1210 leukemia, Sens; 36 µM in series [3] (setting [8]); 36 µM in [3] (setting [9]); 10 µM with A-549 lung; 35 µM in the series with A375 melan. Further, the IC50 was 8.9 µM in [4]; 13 µM in the series on MCF7 breast, Sens; 9.8 µM in series [5]; 31 µM with OVCAR3 ovarian; 98 µM in [6]; 2.4 µM in the series with WiDr colon, Sens. Also, the IC50 in the series on WiDr colon, res stood at 12 µM. Besides, in series [3] (against sensitive myeloma), the “Log(1/C)” value amounted to 4.44. Moreover, the π in series [7] is 2.51.
As for `N[C@@H](Cc1ccc(N(CCCl)CCCl)cc1)C(=O)O` [Melphalan, 4-[bis(2-chloroethyl)amino]-L-phenylalanine], the “patients showing a favorable response” value in series [1] (multiple myeloma, oral administration) is reported as “one third to one half”.
As for `N#CC1CN1C(=O)Nc1cccnc1` (centres unmarked) [Compound 24, 2-Cyanoaziridine-1-[N-(3-pyridyl)]carboxamide], the IC50 in the series on L1210 leukemia, Mdr was 16 µM; in the series on L1210 leukemia, Sens, 11 µM; in [3] (setting [8]) it was 12 µM; in [3] (setting [9]), 12 µM; in the series with A-549 lung, 16 µM; with A375 melan, 12 µM. Moreover, the IC50 in [4] is 6.6 µM; in the series on MCF7 breast, Sens, 4.2 µM; in series [5], 5.4 µM; in the series on OVCAR3 ovarian, 10 µM; in series [6], 15 µM; in the series on WiDr colon, Sens, 6 µM. Besides, the IC50 in the series with WiDr colon, res is 18 µM. The “Log(1/C)” value in series [3] (against sensitive myeloma) was 4.95. In addition, the π in series [7] was 0.32.
For `N#CC1CN1C(=O)NCc1ccccc1` (centres unmarked) [Compound 11, 2-Cyanoaziridine-1-(N-benzyl) carboxamide], the IC50 stood at 10 µM in the series on L1210 leukemia, Mdr; 3.8 µM in the series with L1210 leukemia, Sens; 9 µM in series [3] (setting [8]); 9 µM in series [3] (setting [9]); 7.4 µM in the series on A-549 lung; 11 µM in the series on A375 melan. For the same molecule, the IC50 came to 6 µM in [4]; 7.4 µM in the series on MCF7 breast, Sens; 3.4 µM in series [5]; 5 µM with OVCAR3 ovarian; 11 µM in series [6]; 5.3 µM in the series on WiDr colon, Sens. The IC50 in the series with WiDr colon, res worked out at 10 µM. The “Log(1/C)” value in series [3] (against sensitive myeloma) was 5.05. Further, in series [7], the π is given as 2.50.
For the molecule `CC(=O)Oc1ccccc1NC(=O)N1CC1C#N` (centres unmarked) [Compound 21, 2-Cyanoaziridine-1-[N-(2-acetoxyphenyl)]carboxamide], the IC50 in the series on L1210 leukemia, Mdr was 7.9 µM; in the series on L1210 leukemia, Sens, 9.6 µM; in series [3] (setting [8]), 8.7 µM; in [3] (setting [9]), 8.7 µM; with A-549 lung, 5.6 µM; with A375 melan it was 7.9 µM. The IC50 in [4] came out at 3.2 µM; in the series on MCF7 breast, Sens, 3.6 µM; in series [5] it was 3.5 µM; in the series on OVCAR3 ovarian, 10 µM; in series [6] it was 9.6 µM; in the series on WiDr colon, Sens it was 3.3 µM. For the same molecule, the IC50 with WiDr colon, res was determined as 9 µM. Also, the “Log(1/C)” value in series [3] (against sensitive myeloma) came to 5.06. Besides, in series [7], the π was 1.45.
Take `N#CC1CN1C(=O)Nc1ccc(F)cc1` (centres unmarked) [Compound 14, 2-Cyanoaziridine-1-[N-(4-fluorophenyl)]carboxamide]: the IC50 with L1210 leukemia, Mdr came to 5.9 µM; in the series with L1210 leukemia, Sens it was 7.3 µM; in series [3] (setting [8]) it was 5 µM; in [3] (setting [9]) it was 5 µM; in the series on A-549 lung, 6.2 µM; in the series on A375 melan, 3.4 µM. The IC50 turned out to be 2.4 µM in [4]; 1.9 µM in the series with MCF7 breast, Sens; 2.7 µM in [5]; 5.9 µM in the series with OVCAR3 ovarian; 5.9 µM in series [6]; 2.1 µM in the series with WiDr colon, Sens. Moreover, the IC50 in the series with WiDr colon, res is 9 µM. Further, the “Log(1/C)” value in series [3] (against sensitive myeloma) came to 5.30. Further, in [7], the π is 2.14.
For the molecule `CC(C)(C)NC(=O)N1CC1C#N` (centres unmarked) [Compound 9, 2-Cyanoaziridine-1-(N-t-butyl) carboxamide], the IC50 turned out to be 457 µM in the series with L1210 leukemia, Mdr; 132 µM in the series on L1210 leukemia, Sens; 120 µM in series [3] (setting [8]); 120 µM in [3] (setting [9]); 180 µM in the series on A-549 lung; 418 µM in the series on A375 melan. The IC50 was 190 µM in series [4]; more than 300 µM in the series with MCF7 breast, Sens; 120 µM in series [5]; 186 µM in the series with OVCAR3 ovarian; 216 µM in [6]; 180 µM in the series on WiDr colon, Sens. The IC50 in the series on WiDr colon, res was more than 300 µM. The “Log(1/C)” value in [3] (against sensitive myeloma) is 3.92. The π in series [7] is on record as 1.98.
